The results in this text go back to patent US10350216B2, “Methods of treating, preventing and diagnosing leukemia and other blood diseases and disorders” (The Trustees of Columbia University in the City of New York, priority 2013, dated 2019).

Data set [1] concerns wild type mice. As to the kind of experiment: DBZ treatment of wild type mice: peripheral blood counts and bone marrow cellularity. The class given is in vivo, mouse. Conditions: DBZ 2 μmol/kg body weight daily for 10 days. The procedure:
(§1) […] DBZ is cell-permeable, selective, nontransition sate and noncompetitive inhibitor of the γ-secretase complex. DBZ was synthesized to greater than 99.9% purity as assessed by LC/MS (Syncom) and suspended in a 0.5% Methocel E4M (wt/vol, Colorcon) and 0.1% (vol/vol) Tween-80 (Sigma) solution (van Es et al., 2005). Immediately before intraperitoneal injection, DBZ was sonicated for 2 minutes to achieve a homogenous suspension.
For hematological measurements, blood was collected by cardiac puncture. Peripheral blood cell counts were performed on a FORCYTE Hematology Analyzer (Oxford Science Inc.). For morphological assessment, peripheral blood smears were stained with Wright-Giemsa stain (Sigma-Aldrich) for 10 minutes followed by rinsing in dH2O for 3 minutes. Images were taken using a 60× objective on a Leica microscope outfitted with camera. […]
Hematological measurements, peripheral blood morphology, flow cytometry, PCR, and histological analysis were performed as described in Example 1.

Data set [2] deals with βcat(ex3)osb mice. As to the kind of experiment: DBZ (γ-secretase inhibitor) treatment of βcat(ex3)osb mice: blood counts, flow cytometry, histology, survival. The class given is in vivo. The procedure: as §1
For hematological measurements, blood was collected by cardiac puncture. Peripheral blood cell counts were performed on a FORCYTE Hematology Analyzer (Oxford Science Inc.). For morphological assessment, peripheral blood smears were stained with Wright-Giemsa stain (Sigma-Aldrich) for 10 minutes followed by rinsing in dH2O for 3 minutes. Images were taken using a 60× objective on a Leica microscope outfitted with camera.
Freshly isolated bone marrow cells and spleen cells were resuspended in flow-staining buffer (PBS plus 2% FBS) and the primary conjugated antibodies were added. After 30 minutes incubation at 4° C., the cells were then washed twice before flow cytometry analysis. The following monoclonal antibodies conjugated with fluorescein isothiocyanate (FITC), Allophycocyanin (APC) phycoerythrin (PE), PE-Cy7, APC-CY7, Pacific Blue, and Alexa 700 were used: CD117 (c-kit; 2B8), Sca-1 (D7), Mac-1α (M1/70), Gr-1(RB6-8C5), TER-119, (Ly-76) B220 (CD45R), CD19 (ID3), IgM (R6-60.2), CD3 (17A2), CD4 (RM4-5), CD8a (53-6.7), CD34 (RAM34), CD45 (30-F11), CD31 (MEC 13.3), CD16/CD32 (FcγRII/III; 2.4G2), CD135 (A2F10.1), CD150 (9D1), CD71 (C2), CD45.2 (104), CD45.1 (A20), F4/80, non-phospho (Active) β-Catenin (S33/S37/T41) antibody, IL-7Rα (SB199), Jagged-1 (C-20) and (Cell Signaling; D13A1). Seven-color flow cytometry acquisition was performed using a LSR II flow cytometer (Becton Dickinson) and analysis using FLO-JO software (Treestar, Inc). Cells were gated for size, shape and granularity using forward and side scatter parameters. The positive populations were identified as cells that expressed specific levels of fluorescence activity above the nonspecific auto fluorescence of the isotype control. Nonspecific binding was reduced by preincubation with unconjugated (2.4G2). Osteoblasts from MDS/AML patients or healthy subjects were identified as CD34−/Lin−OCN+ cells, (OCN: osteocalcin an osteoblast-specific protein used for isolation of live osteoblastic cells). For Flow sorting bone marrow, spleen and thymus cells were resuspended in flow staining buffer at 1×10^6/ml and labeled with the appropriate conjugated antibodies. After 30 minutes incubation, cells were washed twice using flow buffer. Flow sorting was performed using FACSAria (Becton Dickinson). Sorted populations were subsequently cultured or stored in RLT buffer at −80° C. for later extraction of RNA. Fluorescence intensity plots were presented in log scale. All flow cytometry data were representative of five independent experiments.
Bone marrow biopsies were fixed overnight in 10% neutral formalin solution, decalcified embedded in paraffin and sectioned at 5 μm per standard laboratory protocol. Sections were stained for β-catenin using a monoclonal antibody (1:1000, BD Transduction Lab) or for Runx2 using a polyclonal antibody (1:100 dilution, Santa Cruz) on an automated Ventana Discovery XT (Tuscon, Ariz.) platform according to manufacturer's instructions. Immune complexes formed were developed using a DAB Map Kit (Ventana, Tuscon, Ariz.). Murine long bones, spleen and liver were collected from one month old mice, fixed overnight in 10% neutral formalin solution, embedded in paraffin, sectioned at 5 μm, and stained with haematoxylin and eosin (H&E). For immunohistochemistry, specimens were incubated with CD-117 (C-kit; Abeam), CD13 (Santa Cruz) or Myeloperoxidase (MPO) antibodies after an antigen retrieval step and blocking of endogenous peroxidase with 3% H2O2. […]
A general note: Flow cytometry measures light scatter and fluorescence of single cells or particles in a stream.

The test system of data set [3] is βcat(ex3)osb mice. Put plainly: Six-week treatment of βcat(ex3)osb mice with anti-Jagged1 antibody or DBZ (Example 17). It counts as in vivo. The procedure:
The following endpoints are analyzed: survival, complete hematopoietic profile in the marrow, leukemia presence in peripheral blood, bone marrow, spleen and liver, potential end organ toxicity, and gene expression profiling of Notch targets Hes1, Hes5, Hey1, and Hey2, and the Hes1 targets, Cebpα and Pu.1.

The test system of data set [4] is LSK cells cultured in the presence of primary osteoblasts. As to the kind of experiment: Real-time PCR of Hes1, Pu.1 and CEBPα in LSK+ population co-cultured with primary osteoblasts and treated with Wnt3a. The class given is cell-based, mouse. Particulars: Wnt3a 50 ng/ml for 24 hours, co-culture with primary osteoblasts. The procedure: (§2) In FIGS. 57B and C, the vehicle treated is represented by the left hand bar and the Wnt3a treated is represented by the right hand bar. n=4 replicates, *p<0.05 versus vehicle. Results are mean±SD.
(§3) Total RNA was isolated from LSK or hematopoietic cells using RNAeasy micro Plus kit (Quiagen). Total RNA from long bones was isolated using TRIzol reagent. Quantitative real-time PCR was performed using the SYBR Green Master Mix (Bio-Rad) as previously described (Rached et al., 2010a). β-Actin was used as endogenous control. Gene expression in LT-HSCs, ST-HSCs and MPPs was performed using the Power Syber Green Cells-to-CT kit (Ambion Life Technologies)
A general note: Real-time PCR tracks product formation cycle by cycle.

The subject of data set [5] is primary, calvaria-derived osteoblasts. As to the kind of experiment: Real-time PCR of Jagged-1 and Magp-2 in primary osteoblasts treated with Wnt3a. It counts as cell-based, mouse. Conditions: Wnt3a 50 ng/ml for 24 hours, versus vehicle. The procedure:
as §2, §3
For flow cytometry analysis, osteoblasts were identified from the digested bone samples as a population of CD34^−Lin^−Ocn^+ cells, where OCN (osteocalcin) is an osteoblast-specific, non-nuclear protein commonly used for isolation of live osteoblastic cells (Eghbali-Fatourechi et al., 2005; Rubin et al., 2011; Manavalan et al., 2012). For experiments in mice, all gene expression studies were repeated using calvaria-derived cells a population rich in committed osteoblast progenitors and routinely used as osteoblast-representative. Primary murine osteoblasts were prepared from calvaria of 2 day-old pups as previously described (Ghosh-Choudhury et al., 1994; Rached et al., 2010b). […]

[6] abbreviates: βcat(ex3)osb mice, 10 days DBZ, bone marrow and spleen.
Where [7] appears, read: βcat(ex3)osb mice, DBZ 2 μmol/kg body weight daily for 10 days.
[8] abbreviates: βcat(ex3)osb mice, six weeks treatment.

For the compound `C[C@H](NC(=O)Cc1cc(F)cc(F)c1)C(=O)NC1C(=O)N(C)c2ccccc2-c2ccccc21` (stereo partly drawn) [DBZ, (2S)-2-[2-(3,5-difluorophenyl)-acetylamino]-N-(5-methyl-6-oxo-6,7-dihydro-5H-dibenzo[b,-d]azepin-7-yl)-propionamide], in data set [1], the “BA (basophils)” value is recorded as 0.5 ± 0.2%, the “BM cell per femur” value is reported as 71.5 ± 4.3 10^5, the “EO (eosinophils)” value came out at 1.55 ± 0.2% and the HB was 12.8 ± 0 g/dL. In data set [1], the HCT worked out at 45.90 ± 2.5%, the “LY (lymphocytes)” value was 78.54 ± 3.2%, the “MO (monocytes)” value came to 5.01 ± 0.6% and the NE turned out to be 14.41 ± 3.2%. In data set [1], the Platelet is given as 1119.5 ± 68.5 10^3/μl and the WBC is 3.54 ± 0.5 ×10^3/μl. In data set [2] (mice treated 10 days with DBZ, intestine), the “Toxic effects (intestinal architecture, goblet cell metaplasia, PAS staining)” value is reported as “without any toxic effects”. In addition, the “Survival (Kaplan-Meier)” value in data set [2] (βcat(ex3)osb mice treated with DBZ versus vehicle) is on record as “increased survival”. In data set [2] (βcat(ex3)osb mice, 10 days DBZ), the “Blasts and hypersegmented neutrophils in the blood; infiltration with immature and atypical myeloid cells and atypical micro-megakaryocytes in bone marrow and spleen” value is given as “not observed”; the Bone marrow cellularity entry was “not affected”; the “LSK and lymphoid-biased progenitors in the bone marrow and LSK/FcgRII/III subset of myeloid progenitors in spleen and bone marrow” value is listed as “returned to normal levels”; the Liver histology result is “appeared normal”. For the same compound, the “Myeloperoxidase staining in bone marrow, spleen and liver” value in data set [2] (βcat(ex3)osb mice, 10 days DBZ) is recorded as “identical to that of wild type animals”. Besides, in data set [2] (setting [6]), the “Compromised B-lymphopoiesis” value is “partially rescued”; the “Defects in the myeloid lineage, erythroid cells, LSK and LT-HSCs populations” value is reported as “reversed”. The Osteopetrotic phenotype result in data set [2] (βcat(ex3)osb mice, 10 days DBZ, long bone sections) is listed as “not affected”. For the same compound, the “Anemia, peripheral monocytosis, neutrophilia and lymphocytopenia” value in data set [2] (βcat(ex3)osb mice, 10 days DBZ, peripheral blood) was “reversed”. For the same compound, in data set [2] (setting [7]), the “BA (basophils)” value was found to be 0.67 ± 0.7%, the “BM cell per femur” value is on record as 18.6 ± 3.5 10^5, the “EO (eosinophils)” value is given as 1.87 ± 1.6% and the HB worked out at 11.2 ± 0.9 g/dL. In data set [2] (setting [7]), the HCT came out at 36.75 ± 3.2%, the “LY (lymphocytes)” value is given as 49.76 ± 4.3%, the “MO (monocytes)” value worked out at 7.46 ± 1.2% and the NE is reported as 42.21 ± 4.8%. Also, in data set [2] (setting [7]), the Platelet was 650 ± 113.1 10^3/μl, the RBC is given as 8.06 ± 0.5 ×10^6/μl and the WBC was 3.1 ± 0.5 ×10^3/μl. The “Toxic effect on the intestines” value in data set [3] (mouse, in vivo) is on record as “no toxic effect”. Besides, in data set [3] (setting [8]), the “Anemia, peripheral monocytosis, neutrophilia and lymphocytopenia and defects in the myeloid lineage, erythroid cells, LSK and LT-HSCs populations in the bone marrow” value was “reversal”; the “Expression of Notch targets Hes1, Hes5, Hey1, and Hey2, and the Hes1 targets, Cebpα and Pu.1” value is “decrease”; the “Invasion of myeloid cells” value is on record as “no invasion”; the “LSK and lymphoid-biased progenitors in the bone marrow and LSK/FcgRII/III subset of myeloid progenitors in spleen and bone marrow” value was “return to normal levels”. In data set [3] (setting [8]), the “Myeloperoxidase staining in bone marrow, spleen and liver” value was “identical to that of control animals”; the Survival entry is “increased survival”.
For Wnt3a, in data set [4], the “Notch signaling in LSK cells (Hes1, Pu.1 and CEBPα expression)” value was “stimulated”. Besides, the “Expression of Jagged-1 and Magp-2” value in data set [5] was “upregulated”.
